From patent publication US20240287138A1, “CYCLIC PEPTIDES FOR INHIBITING TNF RECEPTOR 1 ACTIVITY” (Merck Sharp & Dohme LLC, priority 2023, published 2024)
Numbered stars: 1 amine (or outer) side, 2 acyl side, 3 side chain; on linkers, the order of the positions; unused ones are H or OH. Square brackets hold non-standard residues; d marks the D form. Peptide text beside a SMILES is read from it. * marks the point of attachment. Trp(βS-Me,7-OMe) = COc1cccc2c([C@H](C)[C@H](N)C(=O)O)c[nH]c12; X21 = COc1cccc2c([C@H](C)[C@H](N[*:1])C(=O)[*:2])c(C)[nH]c12; Phe(4-SO2NH2) = N[C@@H](Cc1ccc(S(N)(=O)=O)cc1)C(=O)O; Phe(2-F,4-COOH) = N[C@@H](Cc1ccc(C(=O)O)cc1F)C(=O)O; dPro(trans-4-NMe2) = CN(C)[C@@H]1CN[C@@H](C(=O)O)C1; Trp(7-Br) = N[C@@H](Cc1c[nH]c2c(Br)cccc12)C(=O)O; Trp(7-CN) = N#Cc1cccc2c(C[C@H](N)C(=O)O)c[nH]c12; Trp(7-Cl) = N[C@@H](Cc1c[nH]c2c(Cl)cccc12)C(=O)O; Phe(3-CONH2) = NC(=O)c1cccc(C[C@H](N)C(=O)O)c1; Phe(4-CONH2) = NC(=O)c1ccc(C[C@H](N)C(=O)O)cc1; Phe(4-COOH) = N[C@@H](Cc1ccc(C(=O)O)cc1)C(=O)O; Trp(7-aza) = N[C@@H](Cc1c[nH]c2ncccc12)C(=O)O; dPro(trans-4-F) = O=C(O)[C@H]1C[C@H](F)CN1; Pip(5R-OH) = O=C(O)[C@@H]1CC[C@@H](O)CN1; X1 = O=C([C@@H]1CC[C@H](N[*:1])C1)[*:2]; Gly(Nα-CH2CH2CONH2) = NC(=O)CCNCC(=O)O; X31 = O=C(CN(CCc1nnco1)[*:1])[*:2]; Pip(4-aza) = O=C(O)[C@@H]1CNCCN1; 4Pal = N[C@@H](Cc1ccncc1)C(=O)O; dHyp = O=C(O)[C@H]1C[C@H](O)CN1; aThr = C[C@H](O)[C@H](N)C(=O)O; Ahp(2) = CCCCC[C@H](N)C(=O)O; αMeS = C[C@](N)(CO)C(=O)O; Carboxymethyl = O=C(O)C*; Nle = CCCC[C@H](N)C(=O)O; Sar = CNCC(=O)O

What was measured:
[1] = target: T1, human soluble TNFR1 (sTNFR1) (Homo sapiens, UniProt P19438); assay: Human sTNFR1-peptide displacement assay (LanthaScreen Eu TR-FRET binding assay)
T1 construct: made in house; host or cells: Sf21 (baculovirus)
T1 sequence (P19438 with tags, fused parts or gaps): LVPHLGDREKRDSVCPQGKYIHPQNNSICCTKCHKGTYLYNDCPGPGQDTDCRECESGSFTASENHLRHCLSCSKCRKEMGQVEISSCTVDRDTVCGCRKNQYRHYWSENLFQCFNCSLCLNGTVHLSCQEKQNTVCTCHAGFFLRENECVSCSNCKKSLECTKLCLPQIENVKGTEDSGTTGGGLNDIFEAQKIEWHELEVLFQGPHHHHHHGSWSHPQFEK
Procedure, shortened: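 Readout is the 665/615 nm TR-FRET ratio (Eu anti-His donor, streptavidin-Alexa647 acceptor), normalized to DMSO and saturating displacer, fit by Morrison-based five-parameter logistic for Kd^app. His-tagged sTNFR1 (1-211) prebound to 100 nM biotinylated peptide SEQ ID NO.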

[2] = target: T2, human TNFR2 ECD protein (Homo sapiens, UniProt P20333); assay: SPR off-target binding (selectivity) to human TNFR2 ECD
T2 construct: HRV 3C protease cleavage site (C); 6His (C, cleaved yes); made in house; host or cells: Sf21 insect cells (baculovirus), secreted
T2 sequence (P20333 23-257): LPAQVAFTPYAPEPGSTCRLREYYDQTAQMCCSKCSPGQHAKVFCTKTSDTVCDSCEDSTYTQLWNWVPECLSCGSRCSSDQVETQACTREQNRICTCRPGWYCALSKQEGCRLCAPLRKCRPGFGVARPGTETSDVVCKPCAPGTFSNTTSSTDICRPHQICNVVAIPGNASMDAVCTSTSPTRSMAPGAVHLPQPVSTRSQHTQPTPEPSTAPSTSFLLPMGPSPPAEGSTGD
Procedure, shortened: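 Insect-cell human receptor ECDs, enzymatically biotinylated, immobilized via streptavidin capture chip. Peptide binding and dissociation measured in RU in pH 7.4 HEPES buffer containing 2% DMSO; chip regenerated per analyte. Rate constants give affinity.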

CCCC[C@@H]1NC(=O)[C@@H]2CC[C@@H](C2)NC(=O)[C@H]([C@@H](C)c2c(C)[nH]c3c(OC)cccc23)NC(=O)CN(C)C(=O)[C@H](Cc2ccc(C(=O)O)cc2)NC(=O)[C@H](Cc2ccc(C(N)=O)cc2)NC(=O)[C@](C)(CO)NC(=O)[C@H](Cc2c[nH]c3c(Cl)cccc23)NC(=O)[C@H](Cc2ccc(C(=O)O)cc2)NC(=O)[C@H](CC(N)=O)NC(=O)[C@H]2C[C@H](O)CN2C(=O)[C@H](Cc2c[nH]c3ccccc23)NC(=O)[C@@H]2CC[C@@H](O)CN2C(=O)[C@H](Cc2ccncc2)NC1=O [SEQ ID NO. 106] (cyclo([4Pal][Pip(5R-OH)]W[dHyp]N[Phe(4-COOH)][Trp(7-Cl)][αMeS][Phe(4-CONH2)][Phe(4-COOH)][Sar][X21][X1][Nle]))
Kd [1]: 0.05 nM | Kd [2]: > 1000 nM

CCCCC[C@@H]1NC(=O)[C@@H]2CC[C@@H](C2)NC(=O)[C@H]([C@@H](C)c2c[nH]c3c(OC)cccc23)NC(=O)CN(C)C(=O)[C@H](Cc2cccc(C(N)=O)c2)NC(=O)[C@H](Cc2ccc(C(N)=O)cc2)NC(=O)[C@](C)(CO)NC(=O)[C@H](Cc2c[nH]c3c(Br)cccc23)NC(=O)[C@H](Cc2ccc(C(=O)O)cc2)NC(=O)[C@H](CC(N)=O)NC(=O)[C@H]2C[C@H](O)CN2C(=O)[C@H](Cc2c[nH]c3ccccc23)NC(=O)[C@@H]2CNCCN2C(=O)[C@H](Cc2ccncc2)NC1=O [SEQ ID NO. 109] (cyclo([4Pal][Pip(4-aza)]W[dHyp]N[Phe(4-COOH)][Trp(7-Br)][αMeS][Phe(4-CONH2)][Phe(3-CONH2)][Sar][Trp(βS-Me,7-OMe)][X1][Ahp(2)]))
Kd [1]: 0.11 nM | Kd [2]: > 1000 nM

CCCC[C@@H]1NC(=O)[C@@H]2CC[C@@H](C2)NC(=O)[C@H]([C@@H](C)c2c[nH]c3c(OC)cccc23)NC(=O)CN(C)C(=O)[C@H](Cc2ccc(C(N)=O)cc2)NC(=O)[C@H](Cc2ccc(C(N)=O)cc2)NC(=O)[C@](C)(CO)NC(=O)[C@H](Cc2c[nH]c3c(C#N)cccc23)NC(=O)[C@H](Cc2ccc(C(=O)O)cc2)NC(=O)[C@H](CC(N)=O)NC(=O)[C@H]2C[C@H](F)CN2C(=O)[C@H](Cc2c[nH]c3ccccc23)NC(=O)[C@@H]2CC[C@@H](O)CN2C(=O)[C@H](Cc2ccncc2)NC1=O [SEQ ID NO. 114] (cyclo([4Pal][Pip(5R-OH)]W[dPro(trans-4-F)]N[Phe(4-COOH)][Trp(7-CN)][αMeS][Phe(4-CONH2)][Phe(4-CONH2)][Sar][Trp(βS-Me,7-OMe)][X1][Nle]))
Kd [1]: 0.02 nM | Kd [2]: > 1000 nM

CCCC[C@@H]1NC(=O)[C@@H]2CC[C@@H](C2)NC(=O)[C@H]([C@@H](C)c2c[nH]c3c(OC)cccc23)NC(=O)CN(C)C(=O)[C@H](Cc2ccc(C(=O)O)cc2)NC(=O)[C@H](Cc2ccc(C(N)=O)cc2)NC(=O)[C@](C)(CO)NC(=O)[C@H](Cc2c[nH]c3c(C#N)cccc23)NC(=O)[C@H](Cc2ccncc2)NC(=O)[C@H](CC(N)=O)NC(=O)CN(CCc2nnco2)C(=O)[C@H](Cc2c[nH]c3ncccc23)NC(=O)[C@@H]2CC[C@@H](O)CN2C(=O)[C@H](Cc2ccncc2)NC1=O [SEQ ID NO. 121] (cyclo([4Pal][Trp(7-CN)][αMeS][Phe(4-CONH2)][Phe(4-COOH)][Sar][Trp(βS-Me,7-OMe)][X1][Nle][4Pal][Pip(5R-OH)][Trp(7-aza)][X31]N))
Kd [1]: 0.07 nM | Kd [2]: > 1000 nM

CCCC[C@@H]1NC(=O)[C@@H]2CC[C@@H](C2)NC(=O)[C@H]([C@@H](C)c2c[nH]c3c(OC)cccc23)NC(=O)CN(C)C(=O)[C@H](Cc2ccc(C(N)=O)cc2)NC(=O)[C@H](Cc2ccc(C(N)=O)cc2)NC(=O)[C@](C)(CO)NC(=O)[C@H](Cc2c[nH]c3c(C#N)cccc23)NC(=O)[C@H](Cc2ccc(C(=O)O)cc2)NC(=O)[C@H]([C@H](C)O)NC(=O)[C@H]2C[C@H](O)CN2C(=O)[C@H](Cc2c[nH]c3ncccc23)NC(=O)[C@@H]2CC[C@@H](O)CN2C(=O)[C@H](Cc2ccncc2)NC1=O [SEQ ID NO. 122] (cyclo([4Pal][Pip(5R-OH)][Trp(7-aza)][dHyp][aThr][Phe(4-COOH)][Trp(7-CN)][αMeS][Phe(4-CONH2)][Phe(4-CONH2)][Sar][Trp(βS-Me,7-OMe)][X1][Nle]))
Kd [1]: 0.08 nM | Kd [2]: > 1000 nM

CCCCC[C@@H]1NC(=O)[C@@H]2CC[C@@H](C2)NC(=O)[C@H]([C@@H](C)c2c[nH]c3c(OC)cccc23)NC(=O)CN(C)C(=O)[C@H](Cc2cccc(C(N)=O)c2)NC(=O)[C@H](Cc2ccc(C(N)=O)cc2)NC(=O)[C@](C)(CO)NC(=O)[C@H](Cc2c[nH]c3c(C#N)cccc23)NC(=O)[C@H](Cc2ccc(C(=O)O)cc2)NC(=O)[C@H](CC(N)=O)NC(=O)[C@H]2C[C@H](N(C)C)CN2C(=O)[C@H](Cc2c[nH]c3ccccc23)NC(=O)[C@@H]2CC[C@@H](O)CN2C(=O)[C@H](Cc2ccncc2)NC1=O [SEQ ID NO. 128] (cyclo([4Pal][Pip(5R-OH)]W[dPro(trans-4-NMe2)]N[Phe(4-COOH)][Trp(7-CN)][αMeS][Phe(4-CONH2)][Phe(3-CONH2)][Sar][Trp(βS-Me,7-OMe)][X1][Ahp(2)]))
Kd [1]: 0.09 nM | Kd [2]: > 1000 nM

CCCC[C@@H]1NC(=O)[C@@H]2CC[C@@H](C2)NC(=O)[C@H]([C@@H](C)c2c[nH]c3c(OC)cccc23)NC(=O)CN(C)C(=O)[C@H](Cc2ccc(C(=O)O)cc2)NC(=O)[C@H](Cc2ccc(C(N)=O)cc2)NC(=O)[C@](C)(CO)NC(=O)[C@H](Cc2c[nH]c3c(C#N)cccc23)NC(=O)[C@H](Cc2ccc(C(=O)O)cc2)NC(=O)[C@H](CC(N)=O)NC(=O)CN(CCC(N)=O)C(=O)[C@H](Cc2c[nH]c3ccccc23)NC(=O)[C@@H]2CC[C@@H](O)CN2C(=O)[C@H](Cc2ccncc2)NC1=O [SEQ ID NO. 130] (cyclo([4Pal][Pip(5R-OH)]W[Gly(Nα-CH2CH2CONH2)]N[Phe(4-COOH)][Trp(7-CN)][αMeS][Phe(4-CONH2)][Phe(4-COOH)][Sar][Trp(βS-Me,7-OMe)][X1][Nle]))
Kd [1]: 0.01 nM | Kd [2]: > 1000 nM

CCCC[C@@H]1NC(=O)[C@@H]2CC[C@@H](C2)NC(=O)[C@H]([C@@H](C)c2c[nH]c3c(OC)cccc23)NC(=O)CN(C)C(=O)[C@H](Cc2ccc(C(=O)O)cc2F)NC(=O)[C@H](Cc2ccc(S(N)(=O)=O)cc2)NC(=O)[C@](C)(CO)NC(=O)[C@H](Cc2c[nH]c3c(C#N)cccc23)NC(=O)[C@H](Cc2ccc(C(=O)O)cc2F)NC(=O)[C@H](CC(N)=O)NC(=O)[C@H]2C[C@H](OCC(=O)O)CN2C(=O)[C@H](Cc2c[nH]c3ncccc23)NC(=O)[C@@H]2CC[C@@H](O)CN2C(=O)[C@H](Cc2ccncc2)NC1=O [SEQ ID NO. 134] (cyclo([4Pal][Pip(5R-OH)][Trp(7-aza)][dHyp](Carboxymethyl)N[Phe(2-F,4-COOH)][Trp(7-CN)][αMeS][Phe(4-SO2NH2)][Phe(2-F,4-COOH)][Sar][Trp(βS-Me,7-OMe)][X1][Nle]))
Kd [1]: 0.06 nM | Kd [2]: > 1000 nM

CCCCC[C@@H]1NC(=O)[C@@H]2CC[C@@H](C2)NC(=O)[C@H]([C@@H](C)c2c[nH]c3c(OC)cccc23)NC(=O)CN(C)C(=O)[C@H](Cc2ccc(C(N)=O)cc2)NC(=O)[C@H](Cc2ccc(C(N)=O)cc2)NC(=O)[C@](C)(CO)NC(=O)[C@H](Cc2c[nH]c3c(C#N)cccc23)NC(=O)[C@H](Cc2ccc(C(=O)O)cc2)NC(=O)[C@H](CC(N)=O)NC(=O)[C@H]2C[C@H](OCC(=O)O)CN2C(=O)[C@H](Cc2c[nH]c3ccccc23)NC(=O)[C@@H]2CNCCN2C(=O)[C@H](Cc2ccncc2)NC1=O [SEQ ID NO. 140] (cyclo([4Pal][Pip(4-aza)]W[dHyp](Carboxymethyl)N[Phe(4-COOH)][Trp(7-CN)][αMeS][Phe(4-CONH2)][Phe(4-CONH2)][Sar][Trp(βS-Me,7-OMe)][X1][Ahp(2)]))
Kd [1]: 0.06 nM | Kd [2]: > 1000 nM

CCCC[C@@H]1NC(=O)[C@@H]2CC[C@@H](C2)NC(=O)[C@H]([C@@H](C)c2c[nH]c3c(OC)cccc23)NC(=O)CN(C)C(=O)[C@H](Cc2ccc(O)cc2)NC(=O)[C@H](Cc2ccc(C(=O)O)cc2)NC(=O)[C@](C)(CO)NC(=O)[C@H](Cc2c[nH]c3c(Cl)cccc23)NC(=O)[C@H](Cc2ccncc2)NC(=O)[C@H](CC(N)=O)NC(=O)CN(C)C(=O)[C@H](Cc2c[nH]c3ccccc23)NC(=O)[C@@H]2CNCCN2C(=O)[C@H](Cc2ccncc2)NC1=O [SEQ ID NO. 141] (cyclo([4Pal][Trp(7-Cl)][αMeS][Phe(4-COOH)]Y[Sar][Trp(βS-Me,7-OMe)][X1][Nle][4Pal][Pip(4-aza)]W[Sar]N))
Kd [1]: 0.17 nM | Kd [2]: > 1000 nM
